“And” between values parts separate entries of the source, which are not always exact repeats. Equal entries are not always repeated.
Legend:
[1] = system: irritation-induced reduction in bladder capacity; assay: Dilute Acetic Acid Model-Rats (filling cystometry); assay type: in vivo, rat; conditions: intraduodenal
From the text: The abdominal cavity was moistened with saline and closed by covering with a thin plastic sheet in order to maintain access to the bladder for emptying purposes. Fine silver or stainless steel wire electrodes were inserted into the external urethral sphincter (EUS) percutaneously for electromyography (EMG).
P<0.050 was considered significant.

[2] = system: acetic acid-induced colonic hypersensitivity; assay: Visceromotor response to colorectal distension in acetic acid-sensitized rats
Procedure: The visceromotor behavioral response to colorectal distension was measured by counting the number of abdominal contractions recorded by a strain gauge sutured onto the abdominal musculature as described in Gunter et al., Physiol. […] A 5 cm latex balloon catheter inserted via the anal canal into the colon was used for colorectal distensions. Constant pressure tonic distensions were performed in a graded manner (15, 30 or 60 mmHg) and were maintained for a period of 10 min and the numbers of abdominal muscle contractions were recorded to measure the level of colonic sensation. A 10 min recovery was allowed between distensions.
J. Physiol. […] In the present study, a low concentration of acetic acid (1.5 ml, 0.6%) was administered intracolonically to sensitize the colon without causing histological damage to the colonic mucosa as described in previous studies (Gunter et al., supra).
Injection volume was 0.2 mL using 100% propylene glycol as the vehicle. Three consecutive colorectal distensions at 15, 30 or 60 mmHg applied at 10-min intervals were recorded. Visceromotor responses were evaluated as the number of abdominal muscle contractions recorded during the 10-min periods of colorectal distension.
Adult male rats were used in the study. […] Specifically, rats were anesthetized with Isoflurane (2%) and were instrumented with a strain gauge force transducer for recording of abdominal muscle contractions. A latex balloon and catheter were inserted 11 cm into the colon. The animals were allowed a 30-min period to completely recover from the anesthesia and were then subjected to intracolonic infusion of acetic acid (1.5 mL, 0.6%). An additional 30-min period was allowed for sensitization of the colon. […] The protocol for colorectal distension was initiated 30-min post drug administration. After a basal reading of the number of abdominal contractions with the balloon inserted but not distended, three consecutive 10-min lasting colorectal distensions at 15, 30, and 60 mmHg were applied at 10-min intervals. Colorectal sensitivity was evaluated by counting the number of reflex abdominal contractions (i.e. the visceromotor response) observed within each distension period.
The visceromotor behavioral response to colorectal distension was measured by counting the number of abdominal contractions recorded by a strain gauge sutured onto the abdominal musculature as previously described Gunter et al., referenced above. Colorectal distensions were carried out utilizing a 5 cm latex balloon catheter inserted into the colon via the anal canal. Constant pressure tonic distensions were performed in a graded manner, i.e., the pressure was increased to the desired level of 15, 30, or 60 mmHg and then maintained for a period of 10 minutes during which the number of abdominal contractions were recorded to measure the level of colonic sensation. Ten minute recovery periods were allowed following each distension.

[3] = system: reduction in bladder capacity seen following continuous infusion of dilute acetic acid; assay: Dilute Acetic Acid Model-Cats; assay type: in vivo, cat; conditions: 3 point dose response, 3.0, 10.0 or 30 mg/ml dosed by body weight; P<0.0103; individual significance at 30 mg/kg
Procedure: Six alpha-chloralose anesthetized (50-100 mg/kg) normal female cats (2,5-3.5 kg; Harlan) were utilized in this study.
Female cats (2.5-3.5 kg; Harlan) had their food removed the night before the study. The following morning, the cats were anesthetized with isoflurane and prepped for surgery using aseptic technique. Polyethylene catheters were surgically placed to permit the measurement of bladder pressure, urethral pressure, arterial pressure, respiratory rate as well as for the delivery of drugs. Fine wire electrodes were implanted alongside the external urethral anal sphincter. […] During control cystometry, saline was slowly infused into the bladder (0.5-1.0 ml/min) for 1 hour. The control cystometry was followed by 0.5% acetic acid in saline for the duration of the experiment.
Data was analyzed using a non-parametric One-Way ANOVA (Friedman Test) with the post-hoc Dunn's multiple comparison t test. P<0.05 was considered significant.

[4] = system: stress-induced accelerated colonic transit; assay: Water avoidance stress (WAS) model of increased colonic transit, fecal pellet output; assay type: in vivo, rat; conditions: 3, 10 or 30 mg/kg i.p.
From the text: At the end of the 1-hour stress period, the fecal pellets were counted and recorded. WAS causes an acceleration of colonic transit, which can be quantified by counting the number of fecal pellets, produced during the stress procedure. Rats were placed for 1-hour into a stress chamber onto a raised platform 7.5 cm×7.5 cm×9 cm (L×W×H) in the center of a stress chamber filled with room temperature water 8 cm in depth. The stress chamber was constructed from a rectangular plastic tub (40.2×60.2×31.2 cm). […] Ondansetron was supplied from APIN Chemicals LTD. […] MCI-225 was provided by Mitsubishi Pharma Corp. All drugs were dissolved in a vehicle of 100% propylene glycol (1,2-propanediol) by sonicating for a period of 10 minutes. Propylene glycol was obtained from Sigma Chemical Co. […] All drugs and the vehicle were administered as an i.p. injection in a volume of 0.2 mL.

[5] = system: retching and vomiting induced by cisplatin; assay: Cisplatin-induced emesis in the ferret; assay type: in vivo, ferret (Mustela putorius furo)
Procedure: Following administration of the cisplatin and either MCI-225, ondansetron or vehicle alone, the occurrence of retching and vomiting was monitored for a period of 6 hours. […] Vomiting was defined as the forceful oral expulsion of upper gastrointestinal contents. The latency of the retching or vomiting response and the number of episodes were recorded for each animal and summarized for each experimental group (Wright et al., Infect. […] Following one hour of acclimation to the observation cage, ferrets received an intraperitoneal (i.p.) injection of cisplatin (5 mg/kg in 5 mL) followed in about 2 minutes by i.p. injection of a single dose of MCI-225 or ondansetron (Rudd and Naylor, Eur. J. Pharmacol., 322: 79-82 (1997)). […] Each animal received a single-dose drug treatment. In addition, three animals received an initial dose (30 mg/kg i.p.) and a second MCI-225 injection (30 mg/kg i.p.) 180 minutes following the initial dose. […] All groups were randomized.

small intestinal transit = assay: Small Intestinal Transit Rodent Model (charcoal meal); assay type: in vivo, rat; conditions: for Small intestinal transit, Mean (% of total length): 15 min test period
Procedure: Following an overnight fast, rats were brought to the laboratory in their home cages and received an i.p. injection of one of the following: […] Control rats received no treatment. The treated rats were placed back in the home cages and after 30 min, were fed a 2 mL charcoal meal via an oral gavage. Small intestinal transit was measured following 15 min test-period. Each rat was placed briefly in a glass chamber with IsoFlo for anesthesia and sacrificed. The stomach and the small intestine were removed and the total length of the small intestine was measured. Transit was then measured as the distance that the charcoal meal had traveled along the small intestine and expressed as % of the total length. Animals were randomly assigned to experimental groups and experiments were performed as illustrated in Table 11. Small intestinal transit in rats was investigated by the passage of a charcoal meal along the small intestine during a defined time period (15-min). The animals were deprived of food for 12-16 hrs prior to the experiments. Rats were given a charcoal meal (a mixture of charcoal, gum arabic, and distilled water) as a 2 mL oral gavage and were sacrificed after a 15-min test period. The distance traveled by the charcoal meal was quantified as a percent of the small intestinal length, using the following equation: Transit (%)=cm traveled by meal/cm total small intestinal length×100 […]

[6] = 30 mg/kg b.i.d, second dose 180 minutes after the first

Substance: 4-(2-fluorophenyl)-6-methyl-2-(piperazin-1-yl)thieno[2,3-d]pyrimidine hydrochloride [MCI-225]
- Bladder capacity versus AA/Veh 3 ([1]; 10 mg/kg, p<0.05 Dunn's test): significantly higher than AA/Veh 3
- Bladder capacity versus AA/Veh 3 ([1]; 30 mg/kg, p<0.001 Dunn's test): significantly higher than AA/Veh 3
- Bladder capacity ([1]; 3-30 mg/kg, n=8, p=0.0005 by Friedman test): dose-dependent increase
- Number of abdominal contractions in response to colorectal distension, compared to the vehicle ([2]; 10 mg/kg i.p., 15, 30 and 60 mmHg): significant decrease
- Effect on visceromotor response relative to lower dose ([2]; 30 mg/kg i.p.): less effective
- Animals in which the visceromotor response to CRD was eliminated ([2]; 30 mg/kg i.p., n=6): 50 % of the animals
- Bladder capacity following acetic acid irritation [3]: significant dose-dependent increase
- WAS-induced fecal pellet output during 1 hour [4]: significant dose-dependent inhibition
- Latency ([5]; 1 mg/kg i.p.): 186 ± 35 min
- Retches (360 min) ([5]; 1 mg/kg i.p.): 30.4 ± 9.1
- Total Events ([5]; 1 mg/kg i.p.): 32.9 ± 9.8
- Vomits (360 min) ([5]; 1 mg/kg i.p.): 2.5 ± 0.7
- Latency ([5]; 10 mg/kg i.p.): 192 ± 57 min
- Retches (360 min) ([5]; 10 mg/kg i.p.): 22.9 ± 10.3
- Total Events ([5]; 10 mg/kg i.p.): 25.5 ± 11.1
- Vomits (360 min) ([5]; 10 mg/kg i.p.): 2.6 ± 1.0
- Latency [5, 6]: 360 ± 0 min
- Retches (360 min) [5, 6]: 0.0 ± 0.0
- Total Events [5, 6]: 0.0 ± 0.0
- Vomits (360 min) [5, 6]: 0.0 ± 0.0
- Latency ([5]; 30 mg/kg i.p.): 287 ± 38 min
- Retches (360 min) ([5]; 30 mg/kg i.p.): 3.3 ± 2.2
- Total Events ([5]; 30 mg/kg i.p.): 4.0 ± 2.6
- Vomits (360 min) ([5]; 30 mg/kg i.p.): 0.7 ± 0.5
- Retches and vomits induced by cisplatin ([5]; 1, 10 or 30 mg/kg i.p.): dose-dependent reduction
- Emetic response ([5]; two doses of 30 mg/kg, b.i.d at a 180-min interval): eliminated
- Small intestinal transit, Mean (% of total length) (small intestinal transit; 3 mg/kg i.p.): 30.1%
- Small intestinal transit, Mean (% of total length) (small intestinal transit; 10 mg/kg i.p., hydrochloride): 4.2±2.6% and 4.2%
- Small intestinal transit, Mean (% of total length) (small intestinal transit; 30 mg/kg i.p.): 8.8%
- Effect on small intestinal transit compared to the vehicle (small intestinal transit; 3, 10 or 30 mg/kg i.p.): dose-dependent inhibition

From US20070254891A1, “Crystalline forms of 4-(2-fluorophenyl)-6-methyl-2-(piperazin-1-yl)thieno[2,3-d]pyrimidine” (Dynogen Pharmaceuticals, Inc., priority 2006, published 2007)
